The supplement of paper PMC10307832

How the values were obtained:
Test in all cases: relative viability (nuclei count vs DMSO), 5 days (fraction); higher = more cells survive
NCI-H1651 = system: NCI-H1651
Summary of the method: (§1)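 Lung cancer cell lines in 1536-well plates got either a single drug or a fixed anchor-drug dose together with five library-drug doses (not always all listed) in √10 steps, by pin tool, on the day after seeding. Nuclei were counted after 5 days, and relative viability is the treated-to-vehicle ratio of nuclei counts. Values are medians of duplicate plates.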

NCI-H2405 = system: NCI-H2405
Summary of the method: as §1

NCI-H460 = system: NCI-H460
Summary of the method: as §1

NCI-H1734 = system: NCI-H1734
Summary of the method: as §1

NCI-H1395 = system: NCI-H1395
Summary of the method: as §1

NCI-H2342 = system: NCI-H2342
Summary of the method: as §1

COR-L23 = system: COR-L23
Summary of the method: as §1

NCI-H1975 = system: NCI-H1975
Summary of the method: as §1

NCI-H3122 = system: NCI-H3122
Summary of the method: as §1

NCI-H2023 = system: NCI-H2023
Summary of the method: as §1

NCI-H661 = system: NCI-H661
Summary of the method: as §1

A-427 = system: A-427
Summary of the method: as §1

SW 1573 = system: SW 1573
Summary of the method: as §1

LCLC-97TM1 = system: LCLC-97TM1
Summary of the method: as §1

NCI-H838 = system: NCI-H838
Summary of the method: as §1

LU99A = system: LU99A
Summary of the method: as §1

NCI-H23 = system: NCI-H23
Summary of the method: as §1

NCI-H2126 = system: NCI-H2126
Summary of the method: as §1

ABC-1 = system: ABC-1
Summary of the method: as §1

SK-MES-1 = system: SK-MES-1
Summary of the method: as §1

ChaGo-K-1 = system: ChaGo-K-1
Summary of the method: as §1

LK-2 = system: LK-2
Summary of the method: as §1

HARA = system: HARA
Summary of the method: as §1

LOU-NH91 = system: LOU-NH91
Summary of the method: as §1

## Nc1cccc2c1CN(C1CCC(=O)NC1=O)C2=O (stereo not given) [Lenalidomide] + Cc1cc(Nc2cc(N3CCN(C)CC3)nc(Sc3ccc(NC(=O)C4CC4)cc3)n2)n[nH]1 [Tozasertib] (partner 0.1 µM)
NCI-H1651; first compound 0.253 µM
  relative viability: 0.749
NCI-H1651; first compound 0.8 µM
  relative viability: 0.772
NCI-H1651; first compound 2.53 µM
  relative viability: 0.819
NCI-H1651; first compound 8 µM
  relative viability: 0.815
NCI-H2405; first compound 0.253 µM
  relative viability: 0.738
NCI-H2405; first compound 0.8 µM
  relative viability: 0.766
NCI-H2405; first compound 2.53 µM
  relative viability: 0.778
NCI-H2405; first compound 8 µM
  relative viability: 0.78
NCI-H460; first compound 0.253 µM
  relative viability: 0.393
NCI-H460; first compound 0.8 µM
  relative viability: 0.396
NCI-H460; first compound 2.53 µM
  relative viability: 0.49
NCI-H460; first compound 8 µM
  relative viability: 0.587
NCI-H1734; first compound 0.253 µM
  relative viability: 0.312
NCI-H1734; first compound 0.8 µM
  relative viability: 0.271
NCI-H1734; first compound 2.53 µM
  relative viability: 0.232
NCI-H1734; first compound 8 µM
  relative viability: 0.238
NCI-H1395; first compound 0.253 µM
  relative viability: 0.692
NCI-H1395; first compound 0.8 µM
  relative viability: 0.753
NCI-H1395; first compound 2.53 µM
  relative viability: 0.818
NCI-H1395; first compound 8 µM
  relative viability: 0.678
NCI-H2342; first compound 0.253 µM
  relative viability: 0.504
NCI-H2342; first compound 0.8 µM
  relative viability: 0.49
NCI-H2342; first compound 2.53 µM
  relative viability: 0.649
NCI-H2342; first compound 8 µM
  relative viability: 0.441
COR-L23; first compound 0.253 µM
  relative viability: 0.255
COR-L23; first compound 0.8 µM
  relative viability: 0.238
COR-L23; first compound 2.53 µM
  relative viability: 0.229
COR-L23; first compound 8 µM
  relative viability: 0.29
NCI-H1975; first compound 0.253 µM
  relative viability: 0.886
NCI-H1975; first compound 0.8 µM
  relative viability: 0.755
NCI-H1975; first compound 2.53 µM
  relative viability: 0.844
NCI-H1975; first compound 8 µM
  relative viability: 0.849
NCI-H3122; first compound 0.253 µM
  relative viability: 0.39
NCI-H3122; first compound 0.8 µM
  relative viability: 0.416
NCI-H3122; first compound 2.53 µM
  relative viability: 0.406
NCI-H3122; first compound 8 µM
  relative viability: 0.522
NCI-H2023; first compound 0.253 µM
  relative viability: 0.445
NCI-H2023; first compound 0.8 µM
  relative viability: 0.403
NCI-H2023; first compound 2.53 µM
  relative viability: 0.386
NCI-H2023; first compound 8 µM
  relative viability: 0.519
NCI-H661; first compound 0.253 µM
  relative viability: 0.379
NCI-H661; first compound 0.8 µM
  relative viability: 0.368
NCI-H661; first compound 2.53 µM
  relative viability: 0.335
NCI-H661; first compound 8 µM
  relative viability: 0.374
A-427; first compound 0.253 µM
  relative viability: 0.197
A-427; first compound 0.8 µM
  relative viability: 0.222
A-427; first compound 2.53 µM
  relative viability: 0.22
A-427; first compound 8 µM
  relative viability: 0.216
SW 1573; first compound 0.253 µM
  relative viability: 0.159
SW 1573; first compound 0.8 µM
  relative viability: 0.193
SW 1573; first compound 2.53 µM
  relative viability: 0.276
SW 1573; first compound 8 µM
  relative viability: 0.198
LCLC-97TM1; first compound 0.253 µM
  relative viability: 0.227
LCLC-97TM1; first compound 0.8 µM
  relative viability: 0.277
LCLC-97TM1; first compound 2.53 µM
  relative viability: 0.256
LCLC-97TM1; first compound 8 µM
  relative viability: 0.232
NCI-H838; first compound 0.253 µM
  relative viability: 0.322
NCI-H838; first compound 0.8 µM
  relative viability: 0.28
NCI-H838; first compound 2.53 µM
  relative viability: 0.317
NCI-H838; first compound 8 µM
  relative viability: 0.298
LU99A; first compound 0.253 µM
  relative viability: 0.32
LU99A; first compound 0.8 µM
  relative viability: 0.284
LU99A; first compound 2.53 µM
  relative viability: 0.29
LU99A; first compound 8 µM
  relative viability: 0.276
NCI-H23; first compound 0.253 µM
  relative viability: 0.438
NCI-H23; first compound 0.8 µM
  relative viability: 0.343
NCI-H23; first compound 2.53 µM
  relative viability: 0.723
NCI-H23; first compound 8 µM
  relative viability: 0.405
NCI-H2126; first compound 0.253 µM
  relative viability: 0.873
NCI-H2126; first compound 0.8 µM
  relative viability: 0.817
NCI-H2126; first compound 2.53 µM
  relative viability: 0.82
NCI-H2126; first compound 8 µM
  relative viability: 0.737
ABC-1; first compound 0.253 µM
  relative viability: 0.199
ABC-1; first compound 0.8 µM
  relative viability: 0.17
ABC-1; first compound 2.53 µM
  relative viability: 0.184
ABC-1; first compound 8 µM
  relative viability: 0.175
SK-MES-1; first compound 0.253 µM
  relative viability: 0.865
SK-MES-1; first compound 0.8 µM
  relative viability: 0.802
SK-MES-1; first compound 2.53 µM
  relative viability: 0.913
SK-MES-1; first compound 8 µM
  relative viability: 0.98
ChaGo-K-1; first compound 0.253 µM
  relative viability: 0.242
ChaGo-K-1; first compound 0.8 µM
  relative viability: 0.228
ChaGo-K-1; first compound 2.53 µM
  relative viability: 0.249
ChaGo-K-1; first compound 8 µM
  relative viability: 0.231
LK-2; first compound 0.253 µM
  relative viability: 0.175
LK-2; first compound 0.8 µM
  relative viability: 0.197
LK-2; first compound 2.53 µM
  relative viability: 0.164
LK-2; first compound 8 µM
  relative viability: 0.135
HARA; first compound 0.253 µM
  relative viability: 0.0944
HARA; first compound 2.53 µM
  relative viability: 0.133
HARA; first compound 8 µM
  relative viability: 0.103
LOU-NH91; first compound 0.253 µM
  relative viability: 0.715
LOU-NH91; first compound 0.8 µM
  relative viability: 0.737
LOU-NH91; first compound 2.53 µM
  relative viability: 0.715
LOU-NH91; first compound 8 µM
  relative viability: 0.73
